Like-named read-outs stand apart in the source and are kept apart here.
Experiments:
Test in all cases: microbe, parasite or virus in culture
Set-up in all cases: species or system clinical Candida isolates; CLSI broth microdilution MIC, Sabouraud dextrose broth, 35 °C, visual complete growth inhibition
[1] = test system: T1, C. albicans 5 strains; settings: Candida albicans, 24 h
T1 construct: 5 clinical isolates
Method: (§1) The in vitro antifungal activities were determined by the broth microdilution method with sabouraud dextrose broth (BBL Microbiology Systems, Cockeysville, MD, USA), as recommended by the by the CLSI [43]. Ninety-six-well polystyrene microtitre plates containing serial dilutions of each compound were inoculated with each microorganism to yield the appropriate density (1–5 × 10^3 cells/mL) in a 100-μL final volume. Each plate included (i) fungi without the addition of the compound, (ii) just the medium, and (iii) just the compound. Topical and systemic antifungal reference drugs, clotrimazole and fluconazole, were inserted in the experiment. The plates were incubated for 24 h at 35 °C. […] Three independent experiments were performed in triplicate. The antimicrobial activity of these thiazolidinones was evaluated versus 24 clinical Gram-positive (S. aureus and S. epidermidis) and Gram-negative (E. coli and Enterobacter spp.) microorganisms. The antifungal activity of these derivatives was then tested versus 16 clinical fungal isolates belonging to the most relevant Candida spp. (C. albicans, C. tropicalis, C. parapsilosis, C. sakè, and C. glabrata). Prior to testing, each isolate was cultured on a selective medium to ensure purity and optimal growth, as previously reported. The isolates were routinely identified by the morphological aspects of colonies and by biochemical identification. The used clinical isolates were collected from specimens of patients at the ‘Azienda Policlinico Umberto I’ (Sapienza University of Rome) and were obtained from hematology/oncology and surgery departments, which also included an intensive care unit. In particular, the samples were isolated from the upper and lower respiratory tract, blood, and indwelling venous catheters; the isolates were identified by conventional methodologies. Participating subjects gave their written informed consent for this study.

[2] = test system: T2, Candida sake C. sakè 3 strains; settings: Fermentozyma sake, 24 h; read-out: Tested Fungi (MIC Values μg/mL) / C. sakè 3 strains / 8–32
T2 construct: 3 clinical isolates
Method: as §1

[3] = test system: T3, C. glabrata 3 strains; settings: Nakaseomyces glabratus, 24 h, read-out: Tested Fungi (MIC Values μg/mL) / C. glabrata 3 strains / 8–32
T3 construct: 3 clinical isolates
Method: as §1

[4] = test system: T4, C. parapsilosis 2 strains; settings: Lodderomyces parapsilosis, 24 h, read-out: Tested Fungi (MIC Values μg/mL) / C. parapsilosis 2 strains
T4 construct: 2 clinical isolates
Method: as §1

[5] = test system: T5, C. tropicalis 3 strains; settings: Candida tropicalis, 24 h, read-out: Tested Fungi (MIC Values μg/mL) / C. tropicalis 3 strains
T5 construct: 3 clinical isolates
Method: as §1

Measured: MIC

Clc1ccccc1C(c1ccccc1)(c1ccccc1)n1ccnc1 [Clotrimazole]
2 µg/mL: [1]; read-out: Tested Fungi (MIC Values μg/mL) / C. albicans 5 strains / 8–32 / 32–128 | [2] | [3] | [4] | [5]

OC(Cn1cncn1)(Cn1cncn1)c1ccc(F)cc1F [Fluconazole]
2 µg/mL: [1]; read-out: Tested Fungi (MIC Values μg/mL) / C. albicans 5 strains / 32–128 | [2] | [3] | [4] | [5]

— paper PMC7215574, “Development of Thiazolidinones as Fungal Carbonic Anhydrase Inhibitors” (International Journal of Molecular Sciences, 2020)
